Assay results from patent publication US12371421B2, “Solid forms of a PARP7 inhibitor” (Ribon Therapeutics, Inc., priority 2019, dated 2025).
In brackets after ≈: the same amount, converted by molar mass.

Assay: Approximate solubility of Form A in solvents at room temperature
Type: physicochemical
Method: The approximate solubility of Form A was estimated in 27 solvents or co-solvents at room temperature. Approximately 2 mg of solids were weighed into each 3 mL glass vial, to which each of the solvents was added in stepwise until the solids dissolved completely or the total volume reaches 2.0 mL. Solubility ranges were used to guide the solvent selection for polymorph screening described in later examples.

solubility (organic solvent or mixture, thermodynamic from solid, 1,4-Dioxane): 5000 to 10000 µg/mL (≈ 9.55 to 19.1 mM)
solubility (organic solvent or mixture, thermodynamic from solid, 2-MeTHF): < 1000 µg/mL
solubility (organic solvent or mixture, thermodynamic from solid, ACN): 11000 to 22000 µg/mL (≈ 21 to 42 mM)
solubility (organic solvent or mixture, thermodynamic from solid, ACN/MIBK (1:9) v:v): 2000 to 5000 µg/mL (≈ 3.82 to 9.55 mM)
solubility (organic solvent or mixture, thermodynamic from solid, ACN/MTBE (1:9) v:v): 1200 to 2400 µg/mL (≈ 2.29 to 4.59 mM)
solubility (organic solvent or mixture, thermodynamic from solid, ACN/THF (1:4) v:v): 5000 to 10000 µg/mL (≈ 9.55 to 19.1 mM)
solubility (organic solvent or mixture, thermodynamic from solid, ACN/THF (1:9) v:v): 10000 to 20000 µg/mL (≈ 19.1 to 38.2 mM)
solubility (organic solvent or mixture, thermodynamic from solid, Acetone): > 40000 µg/mL
solubility (organic solvent or mixture, thermodynamic from solid, Acetone/n-Heptane (1:4) v:v): < 1300 µg/mL
solubility (organic solvent or mixture, thermodynamic from solid, Acetone/n-Heptane (1:9) v:v): < 1000 µg/mL
solubility (organic solvent or mixture, thermodynamic from solid, CHCl3): 22000 to 44000 µg/mL (≈ 42 to 84.1 mM)
solubility (organic solvent or mixture, thermodynamic from solid, DCM): 19000 to 38000 µg/mL (≈ 36.3 to 72.6 mM)
solubility (organic solvent or mixture, thermodynamic from solid, DCM/MTBE (1:9) v:v): < 1200 µg/mL
solubility (organic solvent or mixture, thermodynamic from solid, DMAc): 22000 to 44000 µg/mL (≈ 42 to 84.1 mM)
solubility (organic solvent or mixture, thermodynamic from solid, DMSO): > 42000 µg/mL
solubility (organic solvent or mixture, thermodynamic from solid, EtOAc): 1900 to 4800 µg/mL (≈ 3.63 to 9.17 mM)
solubility (organic solvent or mixture, thermodynamic from solid, EtOH): < 1100 µg/mL
solubility (organic solvent or mixture, thermodynamic from solid, IPA): < 1100 µg/mL
solubility (organic solvent or mixture, thermodynamic from solid, IPAc): < 1100 µg/mL
solubility (organic solvent or mixture, thermodynamic from solid, MIBK): < 1000 µg/mL
solubility (organic solvent or mixture, thermodynamic from solid, MTBE): < 1000 µg/mL
solubility (organic solvent or mixture, thermodynamic from solid, MeOH): < 1100 µg/mL
solubility (organic solvent or mixture, thermodynamic from solid, NMP): > 38000 µg/mL
solubility (organic solvent or mixture, thermodynamic from solid, THF): < 1100 µg/mL
solubility (organic solvent or mixture, thermodynamic from solid, Toluene): < 1000 µg/mL
solubility (organic solvent or mixture, thermodynamic from solid, n-Heptane): < 1000 µg/mL
solubility (water, thermodynamic from solid, H2O): < 1100 µg/mL
SMILES: C[C@@H](COCCC(=O)N1CCN(c2ncc(C(F)(F)F)cn2)CC1)Nc1cn[nH]c(=O)c1C(F)(F)F [Form A, 5-[[(2S)-1-(3-oxo-3-[4-[5-(trifluoromethyl)pyrimidin-2-yl]piperazin-1-yl]propoxy)propan-2-yl]amino]-4-(trifluoromethyl)-2,3-dihydropyridazin-3-one]
